The source of these data is patent US20250388589A1, “TRICYCLIC HETEROCYCLIC DERIVATIVES, COMPOSITIONS AND USES THEREOF” (Danatlas Pharmaceuticals Co., Ltd., priority 2022, published 2025).

For experiment [1], the system named is Kuramochi cell line. In words: Cell Viability Assay (Cell Titer-Glo, 7 days). The experiment is classed as cell-based. As to conditions: 168 h, Kuramochi cells, 7 days incubation, read-out: PARG Cell viability (IC50). On the procedure:
Cell viability studies were conducted in Kuramochi cell line. Cells were maintained in RPMI (Hyclone, Catalog #: SH3080901B) supplemented with 10% v/v FBS (AusGeneX, Catalog #: FBS500-S), 1% v/v Penicillin Streptomycin (Gibco, Catalog #: 15140122). Cells were seeded in 96-well plates (PerkinElmer, Catalog #: 6005680) at a density of 400 cells/well. Compounds dissolved in DMSO were plated in duplicate using a multichannel pipette, and tested on a 9-point 3-fold serial dilution. Cells were incubated for 7 days in a 37° C. active humidified incubator at 5% CO2. Cell viability was measured using the Cell Titer-Glo reagent (Promega, Catalog #: G7573) as manufacturer's instructions. Luminescence signal was measured with a multimode plate reader (Perkin Elmer, Envision 2105 or BMG, ClarioStar Plus). Average values of DMSO treated wells in a plate was calculated and as high control (HC). Average values of only medium in a plate was calculated and as low control (LC)
(§1) IC50 values were determined by fitting the data to the standard 4 parameters with Hill Slope using GraphPad Prism software.
(In general: In ATP-based viability assays light output follows the ATP content of the culture.)

For experiment [2], the target named is hPARG (C-terminal His6-tag) (Homo sapiens (Human), UniProt Q86W56). The experiment can be described thus: PARG Enzymatic Activity Assay (HTRF). The experiment is classed as biochemical. As to conditions: hPARG 65 pM final, biotinylated-NAD ribosylated PARP1 8 nM final. On the procedure:
PARG Enzymatic Activity Assay HTRF assay was used to measure the ability of compounds to inhibit the activity of PARG in vitro. C-terminal His6-tag PARG expressed in E. coli was purified and stored at −80° C. in aliquots. Assay measurements were performed with 1×buffer comprising 50 mM Tris pH 7.4, 0.1 mg/mL BSA, 3 mM EDTA, 0.4 mM EGTA, 1 mM DTT, 50 mM KCl and 0.01% Tween 20.
Compounds dissolved in DMSO were plated into a 384-well assay plate (PerkinElmer, Catalog #: 6008280) in duplicate using a dispenser (Labcyte, Echo 665), and tested on a 10-point 4-fold serial dilution. Add 5 L Enzyme mix [hPARG (C-terminal His6-tag, 4.2 μM), 65 pM final] to the test wells. The plates were covered and left to incubate for 60 minutes at RT before the addition of 5 L substrate mix [biotinylated-NAD ribosylated PARP1 (6.1 μM), 8 nM final] to initiate reaction. After incubating 10 minutes at RT, add 2.5 L Streptavidin-Eu cryptate (Cisbio, Catalog #: 610SAKLA) and 2.5 L Mab anti 6HIS-XL665 (Cisbio, Catalog #: 61HISXLA) to the plate, and incubate for 60 minutes at RT. Read on a multimode plate reader (PerkinElmer, Envision 2015) in time-resolved fluorescence (TRF) mode, with excitation at 337 nm and emission at both 620 nm and 665 nm. Average HTRF signal of high control (Wells with 1% DMSO) was calculated and as Vehicle Control (VC). Average HTRF signal of low control (no Enzyme) was calculated and as Positive control (PC).
as §1

hPARG (C-terminal His6-tag), sequence (Q86W56 whole entry): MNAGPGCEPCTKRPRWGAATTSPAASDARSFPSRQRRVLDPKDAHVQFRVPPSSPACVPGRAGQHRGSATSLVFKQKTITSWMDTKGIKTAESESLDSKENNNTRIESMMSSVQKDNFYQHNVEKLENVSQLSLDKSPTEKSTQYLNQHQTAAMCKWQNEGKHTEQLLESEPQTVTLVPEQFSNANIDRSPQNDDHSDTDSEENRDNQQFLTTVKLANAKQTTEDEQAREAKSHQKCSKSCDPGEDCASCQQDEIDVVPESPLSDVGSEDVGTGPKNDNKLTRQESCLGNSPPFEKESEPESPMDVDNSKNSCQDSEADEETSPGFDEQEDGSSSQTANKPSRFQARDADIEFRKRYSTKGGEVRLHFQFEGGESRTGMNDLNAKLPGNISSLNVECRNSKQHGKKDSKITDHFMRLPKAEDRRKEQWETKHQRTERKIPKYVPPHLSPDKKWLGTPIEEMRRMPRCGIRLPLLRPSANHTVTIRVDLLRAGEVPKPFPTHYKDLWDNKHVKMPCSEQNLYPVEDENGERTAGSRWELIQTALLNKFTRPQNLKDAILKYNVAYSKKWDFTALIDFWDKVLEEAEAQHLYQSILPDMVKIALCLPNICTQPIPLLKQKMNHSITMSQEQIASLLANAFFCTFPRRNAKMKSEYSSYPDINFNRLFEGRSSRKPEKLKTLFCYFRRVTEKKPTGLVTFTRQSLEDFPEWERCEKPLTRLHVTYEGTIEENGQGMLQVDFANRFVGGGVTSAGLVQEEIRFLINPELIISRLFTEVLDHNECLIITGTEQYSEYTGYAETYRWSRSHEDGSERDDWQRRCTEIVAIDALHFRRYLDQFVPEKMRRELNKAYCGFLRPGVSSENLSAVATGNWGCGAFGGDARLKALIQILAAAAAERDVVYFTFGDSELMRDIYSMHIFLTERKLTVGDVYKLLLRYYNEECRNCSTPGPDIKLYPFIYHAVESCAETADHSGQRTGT

As usually defined, the IC50 is the concentration needed to halve the response being measured. For the compound `N#CC1(NS(=O)(=O)c2ccc3c4c(N5CCN(c6nccs6)CC5)ncnc4n(-c4nnc(C(F)F)s4)c3c2)CC1` [Example 16, N-(1-Cyanocyclopropyl)-9-(5-(difluoromethyl)-1,3,4-thiadiazol-2-yl)-4-(4-(thiazol-2-yl)piperazin-1-yl)-9H-pyrimido[4,5-b]indole-7-sulfonamide], the IC50 in experiment [1] and in experiment [2] was 100 to 1000 nM in each case.

Regarding `N#CC1(NS(=O)(=O)c2ccc3c4c(N5CCN(c6ccccn6)CC5)ncnc4n(-c4nnc(C(F)F)s4)c3c2)CC1` [Example 17, N-(1-Cyanocyclopropyl)-9-(5-(difluoromethyl)-1,3,4-thiadiazol-2-yl)-4-(4-(pyridin-2-yl)piperazin-1-yl)-9H-pyrimido[4,5-b]indole-7-sulfonamide], the IC50 in experiment [1] and in experiment [2] was 100 to 1000 nM throughout.

For `N#CC1(NS(=O)(=O)c2ccc3c4c(N5CCN(c6ncccn6)CC5)ncnc4n(-c4nnc(C(F)F)s4)c3c2)CC1` [Example 18, N-(1-Cyanocyclopropyl)-9-(5-(difluoromethyl)-1,3,4-thiadiazol-2-yl)-4-(4-(pyrimidin-2-yl)piperazin-1-yl)-9H-pyrimido[4,5-b]indole-7-sulfonamide], the IC50 in experiment [1] and in experiment [2] was 100 to 1000 nM each time.

Consider `N#CC1(NS(=O)(=O)c2ccc3c4c(N5CCN(c6cccnn6)CC5)ncnc4n(-c4nnc(C(F)F)s4)c3c2)CC1` [Example 19, N-(1-Cyanocyclopropyl)-9-(5-(difluoromethyl)-1,3,4-thiadiazol-2-yl)-4-(4-(pyridazin-3-yl)piperazin-1-yl)-9H-pyrimido[4,5-b]indole-7-sulfonamide], for which the 50% inhibitory concentration (IC50) is 100 to 1000 nM in experiment [1] and less than 100 nM in experiment [2].

On to `N#CC1(NS(=O)(=O)c2ccc3c4c(N5CCC6(CC5)COC6)ncnc4n(-c4nnc(C(F)F)s4)c3c2)CC1` [Example 20, N-(1-Cyanocyclopropyl)-9-(5-(difluoromethyl)-1,3,4-thiadiazol-2-yl)-4-(2-oxa-7-azaspiro[3.5]nonan-7-yl)-9H-pyrimido[4,5-b]indole-7-sulfonamide], for which the IC50 in experiment [1] and in experiment [2] was less than 100 nM throughout.

For `C[C@@H]1CN(c2ncnc3c2c2ccc(S(=O)(=O)NC4(C#N)CC4)cc2n3-c2nnc(C(F)F)s2)CCO1` [Example 21, (R)-N-(1-cyanocyclopropyl)-9-(5-(difluoromethyl)-1,3,4-thiadiazol-2-yl)-4-(2-methylmorpholino)-9H-pyrimido[4,5-b]indole-7-sulfonamide], the IC50 in experiment [1] is 100 to 1000 nM; in experiment [2] it was less than 100 nM.

Consider `Cn1ccnc1N1CCN(c2ncnc3c2c2ccc(S(=O)(=O)NC4(C#N)CC4)cc2n3-c2nnc(C(F)F)s2)CC1` [Example 22, N-(1-Cyanocyclopropyl)-9-(5-(difluoromethyl)-1,3,4-thiadiazol-2-yl)-4-(4-(1-methyl-JH-imidazol-2-yl)piperazin-1-yl)-9H-pyrimido[4,5-b]indole-7-sulfonamide], for which the IC50 in experiment [1] is 100 to 1000 nM; in experiment [2] it was less than 100 nM.

As to `CC(C)C(=O)N1CC2(C1)CN(c1ncnc3c1c1ccc(S(=O)(=O)NC4(C#N)CC4)cc1n3-c1nnc(C(F)F)s1)C2` [Example 23, N-(1-Cyanocyclopropyl)-9-[5-(difluoromethyl)-1,3,4-thiadiazol-2-yl]-4-[2-(2-methylpropanoyl)-2,6-diazaspiro[3.3]heptan-6-yl]pyrimido[4,5-b]indole-7-sulfonamide], the IC50 in experiment [1] was 100 to 1000 nM; in experiment [2], less than 100 nM.

As to `CC(C)C(=O)N1C2CCC1CN(c1ncnc3c1c1ccc(S(=O)(=O)NC4(C#N)CC4)cc1n3-c1nnc(C(F)F)s1)C2` [Example 24, N-(1-Cyanocyclopropyl)-9-[5-(difluoromethyl)-1,3,4-thiadiazol-2-yl]-4-[8-(2-methylpropanoyl)-3,8-diazabicyclo[3.2.1]octan-3-yl]pyrimido[4,5-b]indole-7-sulfonamide], the results for the IC50 in experiment [1] and in experiment [2] were 100 to 1000 nM and less than 100 nM, respectively.

Take `CC(C)C(=O)N1CCCN(c2ncnc3c2c2ccc(S(=O)(=O)NC4(C#N)CC4)cc2n3-c2nnc(C(F)F)s2)CC1` [Example 25, N-(1-Cyanocyclopropyl)-9-(5-(difluoromethyl)-1,3,4-thiadiazol-2-yl)-4-(4-isobutyryl-1,4-diazepan-1-yl)-9H-pyrimido[4,5-b]indole-7-sulfonamide]: the IC50 was 100 to 1000 nM in experiment [1] and less than 100 nM in experiment [2].

Consider `N#CC1(NS(=O)(=O)c2ccc3c4c(N5CCN(C(=O)C6CC6(F)F)CC5)ncnc4n(-c4nnc(C(F)F)s4)c3c2)CC1` (centres unmarked) [Example 26, N-(1-Cyanocyclopropyl)-4-(4-(2,2-difluorocyclopropane-1-carbonyl)piperazin-1-yl)-9-(5-(difluoromethyl)-1,3,4-thiadiazol-2-yl)-9H-pyrimido[4,5-b]indole-7-sulfonamide], for which the IC50 in experiment [1] and in experiment [2] was less than 100 nM throughout.

For `Cc1ccc(C(=O)N2CCN(c3ncnc4c3c3ccc(S(=O)(=O)NC5(C#N)CC5)cc3n4-c3nnc(C(F)F)s3)CC2)cn1` [Example 27, N-(1-Cyanocyclopropyl)-9-(5-(difluoromethyl)-1,3,4-thiadiazol-2-yl)-4-(4-(6-methylnicotinoyl)piperazin-1-yl)-9H-pyrimido[4,5-b]indole-7-sulfonamide], the IC50 in experiment [1] is 100 to 1000 nM; in experiment [2], less than 100 nM.

Turning to `CN(C)C(=O)N1CC2CN(c3ncnc4c3c3ccc(S(=O)(=O)NC5(C#N)CC5)cc3n4-c3nnc(C(F)F)s3)CC2C1` (centres unmarked) [Example 28, 5-(7-(N-(1-Cyanocyclopropyl)sulfamoyl)-9-(5-(difluoromethyl)-1,3,4-thiadiazol-2-yl)-9H-pyrimido[4,5-b]indol-4-yl)-N,N-dimethylhexahydropyrrolo[3,4-c]pyrrole-2(1H)-carboxamide], the IC50 in experiment [1] is 100 to 1000 nM; in experiment [2], less than 100 nM.

For the compound `C[C@@H]1CN(c2ncnc3c2c2ccc(S(=O)(=O)NC4(C#N)CC4)cc2n3-c2nnc(C(F)F)s2)C[C@H](C)N1C(=O)C1CC1` [Example 29, N-(1-Cyanocyclopropyl)-4-((3S,5R)-4-(cyclopropanecarbonyl)-3,5-dimethylpiperazin-1-yl)-9-(5-(difluoromethyl)-1,3,4-thiadiazol-2-yl)-9H-pyrimido[4,5-b]indole-7-sulfonamide], the IC50 in experiment [1] and in experiment [2] was less than 100 nM throughout.

`N#CC1(NS(=O)(=O)c2ccc3c4c(N5CCN(C(=O)C6CCC6)CC5)ncnc4n(-c4nnc(C(F)F)s4)c3c2)CC1` [Example 30, N-(1-Cyanocyclopropyl)-4-(4-(cyclobutanecarbonyl)piperazin-1-yl)-9-(5-(difluoromethyl)-1,3,4-thiadiazol-2-yl)-9H-pyrimido[4,5-b]indole-7-sulfonamide]: the figures for the 50% inhibitory concentration (IC50) in experiment [1] and in experiment [2] were 100 to 1000 nM and less than 100 nM, respectively.

Turning to `CC(C)C(=O)N1[C@H](C)CN(c2ncnc3c2c2ccc(S(=O)(=O)NC4(C#N)CC4)cc2n3-c2nnc(C(F)F)s2)C[C@H]1C` [Example 31, N-(1-Cyanocyclopropyl)-9-(5-(difluoromethyl)-1,3,4-thiadiazol-2-yl)-4-((3R,5R)-4-isobutyryl-3,5-dimethylpiperazin-1-yl)-9H-pyrimido[4,5-b]indole-7-sulfonamide], the concentration for half-maximal inhibition (IC50) in experiment [1] and in experiment [2] was 100 to 1000 nM in each case.
